Values after ≈ are worked out from the molar mass of the structure shown. Active and inactive are the calls of the source. The rule behind the calls is not given here.
Key:
Human alphaherpesvirus 1 = assay: Antiviral activity against HSV1; type: functional, organism-based
Human alphaherpesvirus 2 = assay: Antiviral activity against HSV2; type: functional, organism-based

Row | EC50 (Human alphaherpesvirus 1) [µg/mL] | EC50 (Human alphaherpesvirus 2) [µg/mL] | Structure (SMILES) | Activity (Human alphaherpesvirus 1) | Activity (Human alphaherpesvirus 2)
1 | – | – | O=C1OC2=C[C@@H](O[C@@H]3O[C@H](CO)[C@@H](O)[C@H](O)[C@H]3O)CCC2=C1C(O)c1ccccc1 (some centres undefined) | inactive | inactive
2 | 0.24 (≈ 1.07 µM) | 0.22 (≈ 0.977 µM) | Nc1nc2c(ncn2COCCO)c(=O)[nH]1 [ACYCLOVIR] | – | –

Source: ChEMBL document CHEMBL1158662, “Cochinolide, a new gamma-alkylidene bicyclic butenolide with antiviral activity, and its beta-glucopyranoside from Homalium cochinchinensis” (J Nat Prod, 1998)
